Results as given in patent US12338255B2, “Bicyclic substituted sulfonylurea compounds as inhibitors of interleukin-1 activity” (Viva Star Biosciences (Suzhou) Co., Ltd., priority 2022, dated 2025).
One block for each molecule: values may come before it.

Target: T1, NLRP3 (Homo sapiens, UniProt Q96P20)
T1 construct: Seed THP-1 cells (5.56*10^5 cells/mL) containing 1.0 ug/mL LPS; endogenous in cells; host or cells: THP-1 cells
Assay: THP-1 LPS/nigericin IL1β release (pyroptosis assay), HTRF
Assay type: cell-based
Details: NLRP3 inhibitory activity; THP-1 cells, 1.0 ug/mL LPS, compound 3 hrs, nigericin 5 uM 1 hr, IL1β in supernatant
Description: The following method was used for compound screening. • 1. Seed THP-1 cells (5.56*10^5 cells/mL) containing 1.0 ug/mL LPS (SIGMA, L6529) in 45 uL RPMI 1640 medium (without FBS) into 384-well plate (Thermo Scientific, 164688). • 2. Add 5 uL compound (10 doses starting from 5 uM, 1:3 dilution) or vehicle (0.05% DMSO in medium) to the appropriate wells. • 3. Centrifuge the plates at 1000 rpm for 2 mins and incubate for 3 hrs at 37° C., 5% CO2. • 4. Add 5 uL nigericin (MEC, HY-100381) (final conc. 5 uM) to sample wells and positive control wells; add 5 uL RPMI 1640 medium to negative control wells. • 5. Centrifuge plates at 1000 rpm for 2 mins and incubate for 1 hr at 37° C., 5% CO2. • 6. At the end of the incubation period, centrifuge plates at 1000 rpm for 6 mins and transfer 8 uL supernatant into 384-well assay plates (PerkinElmer, 6008280). • 7. Add 8 ul RPMI 1640 medium into each well and spin down for 10 secs. • 8. Prepare the standard solutions and pre-mixed IL1β antibodie solution of Human IL1β kits (PerkinElmer, 62HIL1BPEH) according to the instruction. • 9. Add 16 uL standard solutions into clear wells of 384-well assay plates. • 10. Add 4 uL pre-mixed IL1β antibodie solution to all wells including sample wells, positive control wells, negative control wells and standard solutions wells. • 11. Seal the plates, spin down for 10 secs, incubation for overnight at RT and read on an HTRF® compatible reader (BMG LABTECH, PHERAstar FS). • 12. The concentrations of IL1β for treated wells are calculated by the standard curve. • 13. The IC50 data is fitted to a non-liner regression equation (log inhibitor vs. response—Variable slope four parameters)).

T1 sequence (Q96P20 whole entry): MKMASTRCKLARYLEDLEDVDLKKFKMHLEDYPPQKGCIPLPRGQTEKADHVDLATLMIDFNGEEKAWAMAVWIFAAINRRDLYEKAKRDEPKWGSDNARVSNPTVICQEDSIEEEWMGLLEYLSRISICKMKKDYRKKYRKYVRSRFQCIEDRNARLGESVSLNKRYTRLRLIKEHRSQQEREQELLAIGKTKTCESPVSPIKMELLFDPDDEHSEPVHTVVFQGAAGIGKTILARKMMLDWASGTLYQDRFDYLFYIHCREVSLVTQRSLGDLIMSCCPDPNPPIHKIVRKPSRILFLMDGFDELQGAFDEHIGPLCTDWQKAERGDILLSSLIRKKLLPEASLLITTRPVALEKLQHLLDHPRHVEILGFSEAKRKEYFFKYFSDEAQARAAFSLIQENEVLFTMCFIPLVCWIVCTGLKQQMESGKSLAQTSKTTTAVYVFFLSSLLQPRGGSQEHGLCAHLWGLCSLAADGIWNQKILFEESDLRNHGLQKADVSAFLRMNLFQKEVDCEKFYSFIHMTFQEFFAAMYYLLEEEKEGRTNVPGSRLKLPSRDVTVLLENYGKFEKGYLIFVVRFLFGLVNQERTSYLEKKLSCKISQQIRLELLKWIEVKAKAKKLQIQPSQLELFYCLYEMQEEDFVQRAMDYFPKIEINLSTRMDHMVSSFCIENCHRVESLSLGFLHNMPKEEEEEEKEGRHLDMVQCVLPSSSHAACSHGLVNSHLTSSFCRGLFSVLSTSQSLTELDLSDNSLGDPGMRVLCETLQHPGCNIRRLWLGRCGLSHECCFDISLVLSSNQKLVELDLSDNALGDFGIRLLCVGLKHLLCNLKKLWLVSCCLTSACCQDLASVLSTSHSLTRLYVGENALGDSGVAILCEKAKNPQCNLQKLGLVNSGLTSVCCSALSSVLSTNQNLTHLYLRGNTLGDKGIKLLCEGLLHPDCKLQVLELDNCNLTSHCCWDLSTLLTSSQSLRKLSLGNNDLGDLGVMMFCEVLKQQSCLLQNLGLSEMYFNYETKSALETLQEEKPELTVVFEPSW

Compound: O=C(Nc1c(-c2ccc3ncnn3c2)ccc2c1CCC2)NS(=O)(=O)c1cc2n(n1)CCO[C@H]2C1CC1 (single isomer, unassigned) [Example 8]
IC50: 100 to 500 nM

Compound: O=C(Nc1c(-c2ccn3ncnc3c2)ccc2c1CCC2)NS(=O)(=O)c1cc2n(n1)CCO[C@@H]2C1CC1 (single isomer, unassigned) [Example 13]
IC50: 100 to 500 nM

Compound: O=C(Nc1c(-c2ccn3nncc3c2)ccc2c1CCC2)NS(=O)(=O)c1cc2n(n1)CCO[C@H]2C1CC1 (single isomer, unassigned) [Example 7]
IC50: 100 to 500 nM

Compound: O=C(Nc1c(-c2ccc3nncn3c2)ccc2c1CCC2)NS(=O)(=O)c1cc2n(n1)CCO[C@@H]2C1CC1 (single isomer, unassigned) [Example 14]
IC50: 500 to 1000 nM

Compound: O=C(Nc1c(-c2ccc3ncnn3c2)ccc2c1CCC2)NS(=O)(=O)c1cc2n(n1)CCO[C@@H]2C1CC1 (single isomer, unassigned) [Example 4]
IC50: 100 to 500 nM

Compound: O=C(Nc1c(-c2ccc3ccnn3c2)ccc2c1CCC2)NS(=O)(=O)c1cc2n(n1)CCO[C@@H]2C1CC1 (single isomer, unassigned) [Example 2]
IC50: 100 to 500 nM

Compound: Cc1cc2c(c(NC(=O)NS(=O)(=O)c3cnn4c3COCC4)c1-c1ccn3nccc3c1)CCC2 [Example 26, N-((6-methyl-5-(pyrazolo[1,5-a]pyridin-5-yl)-2,3-dihydro-1H-inden-4-yl)carbamoyl)-6,7-dihydro-4H-pyrazolo[5,1-c][1,4]oxazine-3-sulfonamide]
IC50: 100 to 500 nM

Compound: O=C(Nc1c(-c2ccn3nccc3c2)ccc2c1CCC2)NS(=O)(=O)c1cc2n(n1)C(C1CC1)COC2 (stereo not drawn) [Example 16, 7-cyclopropyl-N-((5-(pyrazolo[1,5-a]pyridin-5-yl)-2,3-dihydro-1H-inden-4-yl)carbamoyl)-6,7-dihydro-4H-pyrazolo[5,1-c][1,4]oxazine-2-sulfonamide]
IC50: 100 to 500 nM

Compound: Cc1cc2c(c(NC(=O)NS(=O)(=O)c3cc4n(n3)CCOC4(C)C)c1-c1ccnc3[nH]ccc13)CCC2 [Example 20, 4,4-dimethyl-N-((6-methyl-5-(1H-pyrrolo[2,3-b]pyridin-4-yl)-2,3-dihydro-1H-inden-4-yl)carbamoyl)-6,7-dihydro-4H-pyrazolo[5,1-c][1,4]oxazine-2-sulfonamide]
IC50: 100 to 500 nM

Compound: Cc1cc2c(c(NC(=O)NS(=O)(=O)c3cn4c(n3)C(C3CC3)OCC4)c1-c1ccnc3[nH]ccc13)CCC2 (stereo not drawn) [Example 19, 8-cyclopropyl-N-((6-methyl-5-(1H-pyrrolo[2,3-b]pyridin-4-yl)-2,3-dihydro-1H-inden-4-yl)carbamoyl)-5,6-dihydro-8H-imidazo[2,1-c][1,4]oxazine-2-sulfonamide]
IC50: 500 to 1000 nM

Compound: O=C(Nc1c(-c2ccc3ccnn3c2)ccc2c1CCC2)NS(=O)(=O)c1cc2n(n1)CCO[C@H]2C1CC1 (single isomer, unassigned) [Example 6]
IC50: 100 to 500 nM

Compound: CO[C@@H]1COc2c(S(=O)(=O)NC(=O)Nc3c4c(cc(C)c3-c3ccc5ccnn5c3)CCC4)cnn2C1 [Example 29, (S)-6-methoxy-N-((6-methyl-5-(pyrazolo[1,5-a]pyridin-6-yl)-2,3-dihydro-1H-inden-4-yl)carbamoyl)-6,7-dihydro-5H-pyrazolo[5,1-b][1,3]oxazine-3-sulfonamide]
IC50: ≤ 100 nM

Compound: Cc1cc2c(c(NC(=O)NS(=O)(=O)c3cc4n(n3)CCO[C@@H]4C3CC3)c1-c1ccn3nccc3c1)CCC2 (single isomer, unassigned) [Example 9]
IC50: ≤ 100 nM

Compound: Cc1cc2c(c(NC(=O)NS(=O)(=O)c3cc4n(n3)CCOC4)c1-c1ccn3nccc3c1)CCC2 [Example 23, N-((6-methyl-5-(pyrazolo[1,5-a]pyridin-5-yl)-2,3-dihydro-1H-inden-4-yl)carbamoyl)-6,7-dihydro-4H-pyrazolo[5,1-c][1,4]oxazine-2-sulfonamide]
IC50: ≤ 100 nM

Compound: CO[C@@H]1COc2c(S(=O)(=O)NC(=O)Nc3c4c(cc(C)c3-c3ccn5ccnc5c3)CCC4)cnn2C1 [Example 28, (S)-N-((5-(imidazo[1,2-a]pyridin-7-yl)-6-methyl-2,3-dihydro-1H-inden-4-yl)carbamoyl)-6-methoxy-6,7-dihydro-5H-pyrazolo[5,1-b][1,3]oxazine-3-sulfonamide]
IC50: ≤ 100 nM

Compound: O=C(Nc1c(-c2ccn3cncc3c2)ccc2c1CCC2)NS(=O)(=O)c1cc2n(n1)CCO[C@@H]2C1CC1 (single isomer, unassigned) [Example 10]
IC50: 100 to 500 nM

Compound: Cc1cc2c(c(NC(=O)NS(=O)(=O)c3cnn4c3COCC4)c1-c1ccnc3[nH]ccc13)CCC2 [Example 21, N-((6-methyl-5-(1H-pyrrolo[2,3-b]pyridin-4-yl)-2,3-dihydro-1H-inden-4-yl)carbamoyl)-6,7-dihydro-4H-pyrazolo[5,1-c][1,4]oxazine-3-sulfonamide]
IC50: 100 to 500 nM

Compound: O=C(Nc1c(-c2ccn3ccnc3c2)ccc2c1CCC2)NS(=O)(=O)c1cc2n(n1)CCO[C@@H]2C1CC1 (single isomer, unassigned) [Example 11]
IC50: 100 to 500 nM

Compound: O=C(Nc1c(-c2ccc3cncn3c2)ccc2c1CCC2)NS(=O)(=O)c1cc2n(n1)CCO[C@@H]2C1CC1 (single isomer, unassigned) [Example 12]
IC50: 100 to 500 nM

Next, values leading:

IC50: ≤ 100 nM
Compound: O=C(Nc1c(-c2ccn3nncc3c2)ccc2c1CCC2)NS(=O)(=O)c1cc2n(n1)CCO[C@@H]2C1CC1 (single isomer, unassigned) [Example 3]

IC50: ≤ 100 nM
Compound: Cc1cc2c(c(NC(=O)NS(=O)(=O)c3cnc4c(c3)N(C3CC3)CCO4)c1-c1ccn3nccc3c1)CCC2 [Example 25, 1-cyclopropyl-N-((6-methyl-5-(pyrazolo[1,5-a]pyridin-5-yl)-2,3-dihydro-1H-inden-4-yl)carbamoyl)-2,3-dihydro-1H-pyrido[2,3-b][1,4]oxazine-7-sulfonamide]

IC50: ≤ 100 nM
Compound: CO[C@@H]1COc2c(S(=O)(=O)NC(=O)Nc3c4c(cc(C)c3-c3ccc5nccn5c3)CCC4)cnn2C1 [Example 30, (S)-N-((5-(imidazo[1,2-a]pyridin-6-yl)-6-methyl-2,3-dihydro-1H-inden-4-yl)carbamoyl)-6-methoxy-6,7-dihydro-5H-pyrazolo[5,1-b][1,3]oxazine-3-sulfonamide]

IC50: ≤ 100 nM
Compound: O=C(Nc1c(-c2ccn3nccc3c2)ccc2c1CCC2)NS(=O)(=O)c1cc2n(n1)CCO[C@@H]2C1CC1 (single isomer, unassigned) [Example 1]

IC50: ≤ 100 nM
Compound: Cc1cc2c(c(NC(=O)NS(=O)(=O)c3cn4c(n3)C(C3CC3)OCC4)c1-c1ccn3nccc3c1)CCC2 (stereo not drawn) [Example 18, 8-cyclopropyl-N-((6-methyl-5-(pyrazolo[1,5-a]pyridin-5-yl)-2,3-dihydro-1H-inden-4-yl)carbamoyl)-5,6-dihydro-8H-imidazo[2,1-c][1,4]oxazine-2-sulfonamide]

IC50: ≤ 100 nM
Compound: Cc1cc2c(c(NC(=O)NS(=O)(=O)c3cc4n(n3)CCOC43CCC3)c1-c1ccn3nccc3c1)CCC2 [Example 17, N-((6-methyl-5-(pyrazolo[1,5-a]pyridin-5-yl)-2,3-dihydro-1H-inden-4-yl)carbamoyl)-6′,7′-dihydrospiro[cyclobutane-1,4′-pyrazolo[5,1-c][1,4]oxazine]-2′-sulfonamide]

IC50: ≤ 100 nM
Compound: Cc1cc2c(c(NC(=O)NS(=O)(=O)c3cc4n(n3)CCOC4(C)C)c1-c1ccn3nccc3c1)CCC2 [Example 22, 4,4-dimethyl-N-((6-methyl-5-(pyrazolo[1,5-a]pyridin-5-yl)-2,3-dihydro-1H-inden-4-yl)carbamoyl)-6,7-dihydro-4H-pyrazolo[5,1-c][1,4]oxazine-2-sulfonamide]

IC50: ≤ 100 nM
Compound: O=C(Nc1c(-c2ccn3nccc3c2)ccc2c1CCC2)NS(=O)(=O)c1cnc2c(c1)N(C1CC1)CCO2 [Example 24, 1-cyclopropyl-N-((5-(pyrazolo[1,5-a]pyridin-5-yl)-2,3-dihydro-1H-inden-4-yl)carbamoyl)-2,3-dihydro-1H-pyrido[2,3-b][1,4]oxazine-7-sulfonamide]

IC50: ≤ 100 nM
Compound: O=C(Nc1c(-c2ccn3nccc3c2)ccc2c1CCC2)NS(=O)(=O)c1cc2n(n1)CCO[C@H]2C1CC1 (single isomer, unassigned) [Example 5]

IC50: ≤ 100 nM
Compound: Cc1cc2c(c(NC(=O)NS(=O)(=O)c3cc4n(n3)CCO[C@@H]4C3CC3)c1-c1ccn3ccnc3c1)CCC2 (single isomer, unassigned) [Example 15]

IC50: ≤ 100 nM
Compound: CO[C@@H]1COc2c(S(=O)(=O)NC(=O)Nc3c4c(cc(C)c3-c3ccn5nccc5c3)CCC4)cnn2C1 [Example 27, (S)-6-methoxy-N-((6-methyl-5-(pyrazolo[1,5-a]pyridin-5-yl)-2,3-dihydro-1H-inden-4-yl)carbamoyl)-6,7-dihydro-5H-pyrazolo[5,1-b][1,3]oxazine-3-sulfonamide]
